Drawing on a melting point compilation (Tetko et al.; mined from patent text by program, amines drawn as free bases though some values may be those of a salt), this text covers melting point for 34 molecules.

As for `C[C@H](Nc1nc(Cl)nc(Cl)n1)c1ccccc1`, the melting point (usually the temperature of the solid-liquid transition) lay within 146 to 147 °C.

As to `CCCCNC(=O)NS(=O)(=O)c1c(C)nn(C)c1OC`, the melting point was in the range of 135 to 142 °C.

For `CNC(=O)N(O)CCNC(=O)c1ccc2ccccc2n1`, the melting point is 158 to 159 °C.

For the molecule `O=c1cc(-c2ccncc2)nc2n1CC(O)CN2CCCc1ccccc1F` (centres undefined), the melting point is 305 to 307 °C.

For `O=C(NC1CCCCC1)OC1c2nccnc2C(=O)N1c1ccc2ccc(Cl)nc2n1` (centres undefined), the melting point is 264 °C.

The molecule `N#Cc1cnn2c(C(F)(F)F)cc(-c3ccc(F)cc3)nc12` showed a melting point of 198 °C.

In the case of `COc1ccc(C2=NN(C(=O)c3cccnc3)CC2)c(OC)c1`, the melting point lay within 112 to 113 °C.

For `COc1cccc2c1C(=O)c1c(OC)cc(-c3nc4ccccc4n3C)cc1C2=O`, the melting point was 283 to 284 °C.

For `COc1ccc2c(c1)C(C#N)c1ccccc1CO2` (centres undefined), the melting point lay within 120 to 122 °C.

The molecule `O=C(O)CCCCCc1nn(-c2ccc([N+](=O)[O-])cc2)c2c1CCCC2` showed a melting point of 119 to 121 °C.

With `C=CCOC(=O)c1ccc(O)c(C23CC4CC(CC(C4)C2)C3)c1F`, the melting point is 219 to 222 °C.

In turn, `CCOC(=O)c1cn2c(=O)n(CC)c3ccccc3n2c1=O` came in with a melting point of 235 to 237 °C.

Molecule `O=C1Nc2ccccc2C1c1cc(Cl)ccc1O` (centres undefined) displayed a melting point of 256 to 258 °C.

For `CCCOc1ncc(NCC(=O)OC)cc1-c1nc2c(CCC)nn(C)c2c(=O)[nH]1`, the melting point came to 175 °C.

As for `CCOP(=O)(Cc1cc(C)c(O)c(C)c1)OCC`, the melting point was 65 °C.

With `Cc1cc(-c2ccc(-c3ccoc3)cc2)n(-c2ccc(S(C)(=O)=O)cc2)c1`, the melting point lay in the range of 193 to 195 °C.

Turning to `CC(=O)OC(c1nc(C)c(C)s1)(c1nc(C)c(C)s1)C(F)(F)F`, the melting point lay in the range of 163 to 164 °C.

In the case of `CCN(CC)c1ccc(-n2cc(-c3ccc(C4=C(C#N)C(=C(C#N)C#N)OC4(C)C)cc3)nn2)cc1`, the melting point was determined as 265 °C.

`Cc1ccc(S(=O)(=O)NNC2=CC(=O)CC(c3ccccc3Cl)C2)cc1` (centres undefined) registered a melting point of 235 to 236 °C.

As for `COC(=O)c1ccccc1S(=O)(=O)NC(=O)c1cc(C)n(C)n1`, the melting point is 176 to 177 °C.

Take `CC(C)n1cnc2c(Nc3ccc([N+](=O)[O-])cc3)nc(Cl)nc21`: the melting point is greater than 260 °C.

Molecule `CC(NC(=O)Cc1cc(F)cc(F)c1)C(=O)NC1C(=O)NCc2cc(F)ccc21` (centres undefined) gave a melting point of 195 to 200 °C.

For the molecule `COc1cc(NC(=O)CCCCCN2CCCN(C)CC2)c2nccc(C)c2c1`, the melting point was in the range of 74 to 77 °C.

The molecule `CCN(CC)CCCNC(=O)Cn1cnc(-c2ccccc2)c1-c1ccccc1` had a melting point of 81 to 83 °C.

For the molecule `O=C(O)C(=O)CC(=O)c1ccnn1Cc1ccc(F)cc1`, the melting point lay in the range of 157 to 159 °C.

As to `COc1cc2c(cc1C(F)(F)F)N(C(=O)Nc1cc(-c3ccccc3)cc(-c3cccnc3)c1)CC2`, the melting point lay within 150 to 151 °C.

Take `COC1CCN(C2CCN(c3ccc(NC(=O)c4cnn(-c5ccc(Cl)cc5)c4C)cc3C#N)CC2)CC1`: the melting point was 245 °C.

Consider `CC(C)Cc1nc(-c2ccccc2)cnc1O`, for which the melting point fell in the range of 205 to 207 °C.

For the molecule `CCCC(=O)Nc1cc(C(=O)Nc2cc(C(=O)Nc3ccc(O)cc3CCBr)n(C)c2)n(C)c1`, the melting point lay within 138 to 150 °C.

`CC1=C(NC=O)C(C)C(C)(C(C)C)C2=C1CC(C)(CI)O2` (centres undefined): the melting point was 145 to 147 °C.

For the molecule `COc1cc2ccnc(N3CCN(C(=O)Nc4ccc([N+](=O)[O-])cc4)CC3)c2cc1OC`, the melting point was in the range of 247 to 248 °C.

In the case of `CCN1CCN(c2ccc(C(=O)NCCCCCCCCCCCCO[N+](=O)[O-])cn2)CC1`, the melting point lay in the range of 71 to 72 °C.

`Clc1ccc(C2C3=C(CCS3)NC3=C2SCC3)cc1Cl` displayed a melting point greater than 260 °C.

Consider `CCc1cnc2c(NC(=O)c3c(Cl)cccc3Cl)cccc2c1/C=C/C(=O)O`, for which the melting point fell in the range of 235 to 236 °C.
